# Measured values: ChEMBL document CHEMBL1201862, “PubChem BioAssay data set” (2004)
#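 Five concentrations, 48 hours, 96-well plates. GI50: concentration for 50% inhibition of growth.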 The source made the active and inactive calls. No stated cut-off is given here; in the data, active = GI50 up to about 1.1 µM and inactive = higher.
# How the values were obtained:
# Assay in all cases: NCI tumour cell line growth inhibition, 48 h
# [1] = tested on: OVCAR-8
# [2] = tested on: PC-3
# [3] = tested on: DU-145
# [4] = tested on: Hs-578T
# [5] = tested on: LOX IMVI
# [6] = tested on: RXF 393
# [7] = tested on: Malme-3M
# [8] = tested on: HCT-116
# [9] = tested on: SN12C
# [10] = tested on: NCI/ADR-RES
# [11] = tested on: T47D
# [12] = tested on: HL-60
# [13] = tested on: HOP-62
# [14] = tested on: 786-0
Compound,GI50 [1],GI50 [2],GI50 [3],GI50 [4],GI50 [5],GI50 [6],GI50 [7],GI50 [8],GI50 [9],GI50 [10],GI50 [11],GI50 [12],GI50 [13],GI50 [14]
Cc1cc(C)c(S(=O)(=O)N(CCCCN)OCCCN)c(C)c1,17.4 µM (inactive),13.3 µM (inactive),15.6 µM (inactive),16 µM (inactive),15.2 µM (inactive),15.2 µM (inactive),20.9 µM (inactive),16.7 µM (inactive),18.7 µM (inactive),20.7 µM (inactive),18.2 µM (inactive),,,
Nc1nc(N)c2cc(Sc3ccc4nc(N)nc(N)c4c3)ccc2n1,0.181 µM (active),,1.13 µM (inactive),> 100 µM (inactive),0.0408 µM (active),> 100 µM (inactive),,0.2 µM (active),,> 31.6 µM (inactive),> 44.2 µM (inactive),0.0533 µM (active),> 100 µM (inactive),
O=c1c(-c2ccc(O)cc2)coc2cc(O)cc(O)c12 [GENISTEIN],> 100 µM (inactive),> 100 µM (inactive),92.5 µM (inactive),65.2 µM (inactive),,,> 100 µM (inactive),,52.5 µM (inactive),> 100 µM (inactive),> 100 µM (inactive),69.8 µM (inactive),,43.2 µM (inactive)
C/C(=N\Nc1nc2ccccc2[nH]1)c1cccc[n+]1[O-],> 100 µM (inactive),> 100 µM (inactive),> 100 µM (inactive),> 100 µM (inactive),56.6 µM (inactive),45.2 µM (inactive),52.7 µM (inactive),88.3 µM (inactive),> 100 µM (inactive),38.5 µM (inactive),> 100 µM (inactive),,> 100 µM (inactive),> 100 µM (inactive)
C=C(C)C(=O)[C@@]12C(=O)[C@@H](C)CC[C@H]1[C@H](C)C[C@@H]2C=C(C)C,30.7 µM (inactive),24 µM (inactive),38.4 µM (inactive),,18.7 µM (inactive),,18 µM (inactive),14.9 µM (inactive),20.8 µM (inactive),27.8 µM (inactive),,,34.4 µM (inactive),20.1 µM (inactive)
CC1(O)OC(=O)C2=C1CCC1C2CCC2(C)C(O)CCC12 (stereo not given),> 100 µM (inactive),,> 100 µM (inactive),> 100 µM (inactive),25.6 µM (inactive),,> 100 µM (inactive),> 100 µM (inactive),> 100 µM (inactive),> 100 µM (inactive),> 100 µM (inactive),> 100 µM (inactive),> 100 µM (inactive),> 100 µM (inactive)
Oc1ccc(-c2nc3cc(C(F)(F)F)ccc3s2)cc1,15.6 µM (inactive),14.5 µM (inactive),16.4 µM (inactive),,12.8 µM (inactive),17.4 µM (inactive),13.6 µM (inactive),14.5 µM (inactive),17.7 µM (inactive),20 µM (inactive),,18.1 µM (inactive),,
O=C(O)C1(C(O)c2ccccc2)SCCCS1 (stereo not given),> 10 µM (inactive),> 10 µM (inactive),> 10 µM (inactive),> 10 µM (inactive),> 10 µM (inactive),> 10 µM (inactive),> 10 µM (inactive),> 10 µM (inactive),> 10 µM (inactive),,> 10 µM (inactive),> 10 µM (inactive),> 10 µM (inactive),> 10 µM (inactive)
CCOC(=O)CCSS(=O)(=O)C(F)(F)F,> 100 µM (inactive),> 100 µM (inactive),> 100 µM (inactive),,> 100 µM (inactive),> 100 µM (inactive),,> 100 µM (inactive),> 100 µM (inactive),> 100 µM (inactive),> 100 µM (inactive),> 100 µM (inactive),> 100 µM (inactive),> 100 µM (inactive)
CC(=O)OCC1OC(N2C(=O)NC(=O)C3C=C4CCCCC4=CC32)C(OC(C)=O)C1OC(C)=O (stereo not given),,> 100 µM (inactive),> 100 µM (inactive),,> 100 µM (inactive),> 100 µM (inactive),> 100 µM (inactive),> 100 µM (inactive),> 100 µM (inactive),,> 100 µM (inactive),> 100 µM (inactive),,
